Like-named read-outs stand apart in the source and are kept apart here.
How the values were obtained:
A2780 = experiment: MTT growth inhibition (in vitro cytotoxicity), A2780; type: cell-based; conditions: Homo sapiens, average IC50
Description: (§1) The following Table sets forth the IC50 values of harmaline and quinoline analogs against 23 human cancer cell lines. Growth inhibition effects (in vitro cytotoxicity) on pancreatic, endometrial, breast, lung, ovarian, renal, cervical, lymphoma, and myeloma cancer cells were determined by MTT assays and represented by average IC50 values. In the Table, the results are given in terms of μM, and nd=not determined.

DoHH-2 = experiment: MTT growth inhibition (in vitro cytotoxicity), DoHH-2; type: cell-based; conditions: Homo sapiens, average IC50
Description: as §1

KMM-1 = experiment: MTT growth inhibition (in vitro cytotoxicity), KMM-1; type: cell-based; conditions: Homo sapiens, average IC50
Description: as §1

MIA Paca-2 = experiment: MTT growth inhibition (in vitro cytotoxicity), MIA Paca-2; type: cell-based; conditions: Homo sapiens, average IC50
Description: as §1

human cancer cell lines = experiment: Cancer cell growth inhibition, summary over cell lines; type: cell-based; conditions: read-out: cancer cell growth inhibition (IC50)
Description: as §1

L363 = experiment: MTT growth inhibition (in vitro cytotoxicity), L363; type: cell-based; conditions: Homo sapiens, L-363, average IC50
Description: as §1

JIM1 = experiment: MTT growth inhibition (in vitro cytotoxicity), JIM1; type: cell-based; conditions: Homo sapiens, average IC50
Description: as §1

ASPC-1 = experiment: MTT growth inhibition (in vitro cytotoxicity), ASPC-1; type: cell-based; conditions: Homo sapiens, ASPC1, average IC50
Description: as §1

FaDu = experiment: MTT growth inhibition (in vitro cytotoxicity), FaDu; type: cell-based; conditions: Homo sapiens, average IC50
Description: as §1

HCC70 = experiment: MTT growth inhibition (in vitro cytotoxicity), HCC70; type: cell-based; conditions: Homo sapiens, average IC50
Description: as §1

RPMI-8226 = experiment: MTT growth inhibition (in vitro cytotoxicity), RPMI-8226; type: cell-based; conditions: Homo sapiens, average IC50
Description: as §1

A498 = experiment: MTT growth inhibition (in vitro cytotoxicity), A498; type: cell-based; conditions: Homo sapiens, average IC50
Description: as §1

MOLP-8 = experiment: MTT growth inhibition (in vitro cytotoxicity), MOLP-8; type: cell-based; conditions: Homo sapiens, average IC50
Description: as §1

H1975 (EGFR mut) = experiment: MTT growth inhibition (in vitro cytotoxicity), H1975 (EGFR mut); type: cell-based; conditions: Homo sapiens, NCI-H1975, average IC50
Description: as §1

MDA-MB-468 = experiment: MTT growth inhibition (in vitro cytotoxicity), MDA-MB-468; type: cell-based; conditions: Homo sapiens, average IC50
Description: as §1

HEC-1a = experiment: MTT growth inhibition (in vitro cytotoxicity), HEC-1a; type: cell-based; conditions: Homo sapiens, average IC50
Description: as §1

H1650(EGFR mut) = experiment: MTT growth inhibition (in vitro cytotoxicity), H1650(EGFR mut); type: cell-based; conditions: Homo sapiens, NCI-H1650, average IC50
Description: as §1

AN3CA = experiment: MTT growth inhibition (in vitro cytotoxicity), AN3CA; type: cell-based; conditions: Homo sapiens, AN3-CA, average IC50
Description: as §1

BxPC-3 = experiment: MTT growth inhibition (in vitro cytotoxicity), BxPC-3; type: cell-based; conditions: Homo sapiens, average IC50
Description: as §1

MDA-MB-231 = experiment: MTT growth inhibition (in vitro cytotoxicity), MDA-MB-231; type: cell-based; conditions: Homo sapiens, average IC50
Description: as §1

A2780CP = experiment: MTT growth inhibition (in vitro cytotoxicity), A2780CP; type: cell-based; conditions: Homo sapiens, A2780C/P, average IC50
Description: as §1

KMS-34 = experiment: MTT growth inhibition (in vitro cytotoxicity), KMS-34; type: cell-based; conditions: Homo sapiens, average IC50
Description: as §1

SiHA = experiment: MTT growth inhibition (in vitro cytotoxicity), SiHA; type: cell-based; conditions: Homo sapiens, average IC50
Description: as §1

OCI-LY3 = experiment: MTT growth inhibition (in vitro cytotoxicity), OCI-LY3; type: cell-based; conditions: Homo sapiens, average IC50
Description: as §1

Metabolic half-life = type: in vitro ADME; conditions: read-out: metabolic half-lives

SMILES	IC50 (A2780) [µM]	IC50 (DoHH-2) [µM]	IC50 (KMM-1) [µM]	IC50 (MIA Paca-2) [µM]	IC50 (human cancer cell lines; cell lines not specified) [µM]	IC50 (L363) [µM]	IC50 (JIM1) [µM]	IC50 (ASPC-1) [µM]	IC50 (FaDu) [µM]	IC50 (HCC70) [µM]	IC50 (RPMI-8226) [µM]	IC50 (A498) [µM]	IC50 (MOLP-8) [µM]	IC50 (H1975 (EGFR mut)) [µM]	IC50 (MDA-MB-468) [µM]	IC50 (HEC-1a) [µM]	IC50 (H1650(EGFR mut)) [µM]	IC50 (AN3CA) [µM]	IC50 (BxPC-3) [µM]	IC50 (MDA-MB-231) [µM]	also measured
COc1ccc2c3c([nH]c2c1)C(CC(CC1NCCc2c1[nH]c1cc(OC)ccc21)c1ccccc1)NCC3 (stereo not shown) [Compound 11, 1,1′-(2-phenylpropane-1,3-diyl)bis(7-methoxy-2,3,4,9-tetrahydro-1H-pyrido[3,4-b]indole)]	3.4	2.31	2.05	2.25	2 to 4	1.92	2.42	2.4	2.22	–	–	–	–	–	–	–	–	–	–	–	–
COc1cc(C=O)ccc1O [vanillin, reference compound]	–	–	–	–	40	–	–	–	–	–	–	–	–	–	–	–	–	–	–	–	–
COc1cc(C(Cc2ccc3ccccc3n2)Cc2ccc3ccccc3n2)ccc1O [Compound 16, 4-(1,3-di(quinolin-2-yl)propan-2-yl)-2-methoxyphenol]	29.7	14.8	17	24.5	–	29.5	35.4	94.6	49.2	35.2	15.2	81.3	16	58.9	31.6	67.7	51	19.7	19.5	31.6	IC50 (A2780CP): 22.3 µM; IC50 (KMS-34): 14.8 µM; IC50 (SiHA): 84.3 µM; IC50 (OCI-LY3): 77.5 µM
COc1ccc2c3c([nH]c2c1)C(C)=NCC3 [harmaline, reference compound]	–	–	–	–	–	–	–	–	–	–	–	–	–	–	–	–	–	–	–	–	IC50 (human cancer cell lines): 25 µM
COc1ccc2c3c([nH]c2c1)C(CC(CC1=NCCc2c1[nH]c1cc(OC)ccc21)c1ccc(O)c(OC)c1)=NCC3 [Compound 5, 4-(1,3-bis(7-methoxy-4,9-dihydro-3H-pyrido[3,4-b]indol-1-yl)propan-2-yl)-2-methoxy-phenol]	5	1.83	3.48	2.87	4 to 7	2.69	3.17	6.75	3.87	2.38	3.19	3.56	3.37	6.12	2.76	5.05	2.78	2.5	2.11	2.52	half-life (Metabolic half-life): 1.28 ± 0.0393 h; IC50 (A2780CP): 3.76 µM; IC50 (KMS-34): 4.72 µM; IC50 (SiHA): 4.88 µM; IC50 (OCI-LY3): 4.54 µM
COc1ccc2nc(CC(Cc3ccc4cc(OC)ccc4n3)c3ccccc3)ccc2c1 [Compound 18, 2,2′-(2-phenylpropane-1,3-diyl)bis(6-methoxyquinoline)]	25.6	14.3	14.8	21.9	–	17.4	31.7	> 100	30.3	> 100	17.8	> 100	15	> 100	> 100	37.6	48.5	41.8	25.1	> 100	IC50 (A2780CP): 26.6 µM; IC50 (KMS-34): 17.2 µM; IC50 (SiHA): > 100 µM; IC50 (OCI-LY3): 42.2 µM
